Values quoted from earlier work as cited in US20090162921A1 (priority 2005, published 2009).

Test system: mouse
Conditions: in vivo; for LD50: po

Row | Molecule | LD50 (50% of the fatal dose in mouse) [mg/kg] | LD50
1 | arsenic acid [As(V)] | 14 to 18 | 14 to 18 mg/kg
2 | C[As+](C)(C)CC(=O)[O-] [AB, arsenobetaine] | 10000 | 10000
